# Key:
# [1] = Pharmacokinetics of gemcitabine in nude mice bearing H1299 xenografts; assay type: in vivo; settings: for AUC / CL / Cmax / Vss: nude mice bearing H1299 xenografts, gemcitabine 160 mg/kg iv
# Protocol: Female nude mice bearing human lung cancer H1299 xenograft were used (3 mice for each time point). […] Bone marrow cells were harvested by using the same method described above. […] In brief, plasma samples (50 μL) were mixed with 5 mL of scintillation solvent (Beckman) to determine total radioactivity. […] Data and Statistical Analysis.
# human cancer xenografts = test: Six murine-human cancer xenograft models overall: efficacy and toxicity; settings: nude mice; carboplatin 120 mg/kg, gemcitabine 160 mg/kg i.p.
# Protocol: Human cancer xenograft models were established using the methods reported previously (26-29). When confluence reached 80%, cultured LS174T, MCF-7, MDA-MB-468, U87-MG, A549 and H1299 cells were harvested from the monolayer cultures, washed with the above indicated serum-free medium and resuspended in the same medium with Matrigel® basement membrane matrix at a 3:1 ratio, and then injected subcutaneously (s.c.) (5×10^6 cells, total volume 0.2 mL) into the left inguinal area of the nude mice. The animals were monitored for activity, physical condition, determination of body weight, and measurement of tumor growth. Tumor growth was determined by caliper measurement in two perpendicular diameters of the implant every other day. Tumor weight (in g) was calculated by the formula, 1/2a×b^2 where “a” is the long diameter and “b” is the short diameter (in cm).
# Nude mice bearing human cancer xenografts were randomly divided into various treatment and control groups (5 mice/group). In treatment groups, animals were pre-treated with DEX subcutaneously (s.c., 0.1 mg/day for 5 days, Day −4-0) or saline (as controls). Carboplatin was administered intraperitoneally (i.p.) at a single dose of 120 mg/kg (360 mg/m^2) on day 0.
# The antitumor activity (tumor mass) and peripheral blood counts were expressed as mean and standard deviations and the significance of differences were analyzed by ANOVA.
# When mean tumor mass reached 44-68 mg, animals were treated with s.c. DEX at a dose of 0.1 mg/day for 5 days, followed by chemotherapy.
# [2] = Pharmacokinetics and tissue distribution of gemcitabine in CD-1 mice; assay type: in vivo; settings: gemcitabine 160 mg/kg iv
# Protocol: At various times (5, 15, and 30 min, 1, 2, 4, 8, and 24 hr after drug dosing), plasma, bone marrow, and tissues including liver, kidneys, heart, lungs, spleen, brain and tumor were collected and treated as described above.
# In brief, plasma samples (50 μL) were mixed with […] of scintillation solvent (Beckman) to determine total radioactivity. Tissue homogenates (50-200 μL) were mixed with 200 μL solubilizer (TS-2) overnight, neutralized with 400 μL of 0.3% acetic acid, and then mixed with scintillation solvent (5 mL) to quantitate the total radioactivity.
# The significance of the differences among treated groups and controls were analyzed by ANOVA.
smiles,measurement,setting,value
Nc1ccn([C@@H]2O[C@H](CO)[C@@H](O)C2(F)F)c(=O)n1 [gemcitabine],increase in tumor AUC by DEX pretreatment,[1]; H1299 nude mice,60%
same,AUC,"[1]; bone marrow, DEX (+)",16.41 µg·h/mL
same,CL,"[1]; bone marrow, DEX (+)",9.75 mL/g/h
same,Cmax,"[1]; bone marrow, DEX (+)",14.36 µg/mL
same,Vss,"[1]; bone marrow, DEX (+)",11.14 mL/g
same,AUC,"[1]; bone marrow, DEX (−)",21.10 µg·h/mL
same,CL,"[1]; bone marrow, DEX (−)",7.58 mL/g/h
same,Cmax,"[1]; bone marrow, DEX (−)",18.53 µg/mL
same,Vss,"[1]; bone marrow, DEX (−)",8.64 mL/g
same,AUC,"[1]; liver, DEX (+)",107.85 µg·h/mL
same,CL,"[1]; liver, DEX (+)",1.48 mL/g/h
same,Cmax,"[1]; liver, DEX (+)",157.46 µg/mL
same,Vss,"[1]; liver, DEX (+)",1.02 mL/g
same,AUC,"[1]; liver, DEX (−)",123.27 µg·h/mL
same,CL,"[1]; liver, DEX (−)",1.30 mL/g/h
same,Cmax,"[1]; liver, DEX (−)",171.80 µg/mL
same,Vss,"[1]; liver, DEX (−)",0.93 mL/g
same,AUC,"[1]; plasma, DEX (+)",322.43 µg·h/mL
same,CL,"[1]; plasma, DEX (+)",0.50 mL/g/h
same,Cmax,"[1]; plasma, DEX (+)",237.16 µg/mL
same,Vss,"[1]; plasma, DEX (+)",9.90 mL/g
same,AUC,"[1]; plasma, DEX (−)",277.38 µg·h/mL
same,CL,"[1]; plasma, DEX (−)",0.58 mL/g/h
same,Cmax,"[1]; plasma, DEX (−)",286.72 µg/mL
same,Vss,"[1]; plasma, DEX (−)",5.96 mL/g
same,AUC,"[1]; spleen, DEX (+)",505.40 µg·h/mL
same,CL,"[1]; spleen, DEX (+)",0.32 mL/g/h
same,Cmax,"[1]; spleen, DEX (+)",179.42 µg/mL
same,Vss,"[1]; spleen, DEX (+)",0.89 mL/g
same,AUC,"[1]; spleen, DEX (−)",909.92 µg·h/mL
same,CL,"[1]; spleen, DEX (−)",0.18 mL/g/h
same,Cmax,"[1]; spleen, DEX (−)",221.99 µg/mL
same,Vss,"[1]; spleen, DEX (−)",0.72 mL/g
same,AUC,"[1]; tumor, DEX (+)",674.44 µg·h/mL
same,CL,"[1]; tumor, DEX (+)",0.23 mL/g/h
same,Cmax,"[1]; tumor, DEX (+)",46.66 µg/mL
same,Vss,"[1]; tumor, DEX (+)",12.72 mL/g
same,AUC,"[1]; tumor, DEX (−)",434.55 µg·h/mL
same,CL,"[1]; tumor, DEX (−)",0.37 mL/g/h
same,Cmax,"[1]; tumor, DEX (−)",49.15 µg/mL
same,Vss,"[1]; tumor, DEX (−)",9.01 mL/g
same,death,human cancer xenografts,no death occurred
same,AUC,"[2]; bone marrow, DEX (+)",7.03 µg·h/mL
same,CL,"[2]; bone marrow, DEX (+)",22.76 mL/g/h
same,Cmax,"[2]; bone marrow, DEX (+)",15.82 µg/mL
same,Vss,"[2]; bone marrow, DEX (+)",10.12 mL/g
same,AUC,"[2]; bone marrow, DEX (−)",18.35 µg·h/mL
same,CL,"[2]; bone marrow, DEX (−)",8.72 mL/g/h
same,Cmax,"[2]; bone marrow, DEX (−)",16.12 µg/mL
same,Vss,"[2]; bone marrow, DEX (−)",9.93 mL/g
same,AUC,"[2]; liver, DEX (+)",124.80 µg·h/mL
same,CL,"[2]; liver, DEX (+)",1.28 mL/g/h
same,Cmax,"[2]; liver, DEX (+)",166.94 µg/mL
same,Vss,"[2]; liver, DEX (+)",0.96 mL/g
same,AUC,"[2]; liver, DEX (−)",123.68 µg·h/mL
same,CL,"[2]; liver, DEX (−)",1.29 mL/g/h
same,Cmax,"[2]; liver, DEX (−)",158.43 µg/mL
same,Vss,"[2]; liver, DEX (−)",1.01 mL/g
same,AUC,"[2]; plasma, DEX (+)",319.96 µg·h/mL
same,CL,"[2]; plasma, DEX (+)",0.50 mL/g/h
same,Cmax,"[2]; plasma, DEX (+)",253.68 µg/mL
same,Vss,"[2]; plasma, DEX (+)",10.81 mL/g
same,AUC,"[2]; plasma, DEX (−)",552.32 µg·h/mL
same,CL,"[2]; plasma, DEX (−)",0.29 mL/g/h
same,Cmax,"[2]; plasma, DEX (−)",264.13 µg/mL
same,Vss,"[2]; plasma, DEX (−)",16.64 mL/g
same,AUC,"[2]; spleen, DEX (+)",135.50 µg·h/mL
same,CL,"[2]; spleen, DEX (+)",1.18 mL/g/h
same,Cmax,"[2]; spleen, DEX (+)",193.29 µg/mL
same,Vss,"[2]; spleen, DEX (+)",0.83 mL/g
same,AUC,"[2]; spleen, DEX (−)",375.21 µg·h/mL
same,CL,"[2]; spleen, DEX (−)",0.43 mL/g/h
same,Cmax,"[2]; spleen, DEX (−)",196.84 µg/mL
same,Vss,"[2]; spleen, DEX (−)",0.81 mL/g

# From patent US20050244335A1, “Methods and compositions related to increasing antitumor activity of chemotherapeutic agents” (priority 2004, published 2005)
